Assay [1] concerns A. baumannii 5075. The experiment in a line: Time kill assays. The conditions noted are these: for rate of killing: each agent at its MIC. It is filed as cell-based. The method, then: dissolved in DMSO, such that the resultant solution had the highest concentration of compound or antibiotic tested and 1.5% DMSO. To carry out the serial dilution from the highest compound concentration, a 150 μ L solution of higher concentration compound or antibiotic was mixed with 150 μ L of cell suspension containing 1.5% DMSO in the wells of a 96 well plate.
Th e 96 well plate was in cubated for 20 hat 35 °C with continuous orbital shaking (205 cpm) in an Epoch2 microplate reader (BioTek), monitoring the growth by […]
following the OD600. […]
Time Kill Assays. Time-kill assays were performed with A. baumannii 507 5 by the broth macro- dilution method in M63- medium containing 1.5% DMSO. An overnight culture was diluted to approximately 5 x10^5 CFU/mL in fresh M63 media. The test solutions were prepared by adding compound (KM-5- 35, or KM-5- 25) dissolved in DMSO to 5 mL of diluted cell suspension to yield a solution of the desired compound concentration and 1.5% DMSO, or by the addition of antibiotic dissolved in water and a small volume of DMSO to produce the desired […]
antibiotic concentration and 1.5% DMSO. Controls containing the diluted cell suspension, 1.5% DMSO but no test compounds were also prepared. […]
800 µL of the suspension was lay ered onto 700 µL of chilled silicon oil contained in 1.5 mL Eppendo rf tubes and then centrifuged at 4 °C ( 900 x g) for 10 min, then again at 16,200 x g for 5 min to allow pass ag e of the cell suspension through the silicon oil layer. The aqueous and oil layers were removed, and the cell pellet was washed twice in PBS (800 μ L), each time transferring the cell suspension to a new Eppendorf tube and then centrifuging at 16,200 x g. The cell pellet was lysed in 800 µL methanol by vortexing followed by 10 min incubationat room temperatur e. The lysate suspension was pelleted, the supernatant was transferred to a new Eppendorf tube and then placed into a vacuum concentrator (Eppendorf 5301 Vacufuge) to evaporate the methanol (4 h). The dried

Assay [2] deals with A. baumannii 5075. The experiment in a line: Checkerboard assay. The assay is classed as cell-based. The method, then:
To carry out the serial dilution from the highest compound concentration, a 150 μ L solution of higher concentration compound or antibiotic was mixed with 150 μ L of cell suspension containing […] Th e 96 well plate was in cubated for 20 hat 35 °C with continuous orbital shaking (205 cpm) in an Epoch2 microplate reader (BioTek), monitoring the growth by following the OD600. […] All assays were p erfo rmed in three biological replicates, each with three […] replicates. Checkerboard Assay. […] CFU/mL. […] in the vertical and hori zontal direction, respectivel y. Bacterial suspensions were […] escrib ed above fo r the MIC determination and added to the plates. […] The 96-well […] cubated for 20 h at 35 °C with continuous orbital shaking (205 cpm) in an Epoch2 microplate reader (BioTek), monitoring the growth by following the OD600. The MIC values of inhibitor and antibiotic were obtained from the corresponding row or column which contained only one component, whereas the remaining rows and columns were utilized for calculating the fractional inhibitory concentration index (FIC) with the aid of equation […] = […]2 Time Kill Assays. Time-kill assays were performed with A. baumannii 507 5 by the broth macro- dilution method […] An overnight culture was diluted to approximately 5 x10^5 CFU/mL in fresh […] media. […] DMSO, or by the addition of antibiotic dissolved in water and a small volume of DMSO to produce the desired S7

SMILES strings stand for the structures. Several values for one entry are separate records, joined by “and”; a condition that tells them apart may be missing. Equal entries are not always repeated. Where only a bound is given, the exact number is not on record here.

For `O=C1NC(=O)c2c(NCc3cc(Cl)ccc3O)cccc21` [KM-5-25, 4-((5-Chloro-2-hydroxybenzyl)amino)isoindoline-1,3-dione], the results for the time kill outcome in the assay on A. baumannii 5075 [1] (compound at 1 × MIC) and in the assay on A. baumannii 5075 [1] (compound at 1.5 × MIC (limit of aqueous solubility)) were “cell growth is observed at later hours” and “bactericidal”, respectively. Also, the “reduction of viable cells (CFU/mL) relative to the inoculum” value in the assay with A. baumannii 5075 [1] (compound at the MIC) was “approximately 3 log10”. For the same compound, the “time to approximately 3log10 reduction of viable cells” value in the assay on A. baumannii 5075 [1] (compound at the MIC) is “approximately 3 h”. Besides, the rate of killing result in the assay on A. baumannii 5075 [1] is on record as “slower than that observed with KM-5–35”. Further, the FIC was 0.36 and 0.38 with A. baumannii 5075 [2] (KM-5–25 with colistin, 5075 (Figure S3)); 0.63 in the assay with A. baumannii 5075 [2] (KM-5–25 with imipenem, 5075 (Figure S3)).

In the case of `O=C1NC(=O)c2c(NCc3cc(Br)ccc3O)cccc21` [KM-5-35, 4-((5-Bromo-2-hydroxybenzyl)amino)isoindoline-1,3-dione], in the assay on A. baumannii 5075 [1] (compound at 1 × MIC), the time kill outcome is on record as “bactericidal”. The “reduction of viable cells (CFU/mL) relative to the inoculum” value in the assay on A. baumannii 5075 [1] (compound at the MIC) was over 3 log10. In the assay with A. baumannii 5075 [1], the rate of killing result is “faster than meropenem but slower than colistin”. Besides, the FIC worked out at 0.50 in the assay on A. baumannii 5075 [2] (KM-5–35 with ceftazidime, 5075); 0.53 with A. baumannii 5075 [2] (KM-5–35 with ciprofloxacin, 5075); 0.50 in the assay with A. baumannii 5075 [2] (KM-5–35 with meropenem, 5075); 0.50 in the assay with A. baumannii 5075 [2] (KM-5–35 with tobramycin, 5075). For the same compound, the MIC alone with A. baumannii 5075 [2] (agent alone, 5075, KM-5–35 14 μg/mL = 40 μM) was found to be 14 µg/mL. In addition, the “MIC of KM-5–35 in combination” value in the assay with A. baumannii 5075 [2] (in combination with ceftazidime, 5075) came to 7 µg/mL; in the assay on A. baumannii 5075 [2] (in combination with ciprofloxacin, 5075), 7 µg/mL; with A. baumannii 5075 [2] (in combination with imipenem, 5075), 3.5 µg/mL; with A. baumannii 5075 [2] (in combination with tobramycin, 5075), 7 µg/mL.
